Measured values from US9315491B2 (DEVELOPMENT CENTER FOR BIOTECHNOLOGY, priority 2009, dated 2016).

Each compound was assayed against PI3K (p110α/p85α) (Homo sapiens (Human), UniProt P42336) (assay: PI3K HTRF enzyme assay, p110α/p85α). Conditions: read-out: % inhibition @ 500 nM p110α; compound at 500 nM, 10 μM ATP.
Format: biochemical
Description: Recombinant PI3K (p110α/p85α) and PI3K (p110β/p85α) were from Millipore. […] Briefly, the compounds of interest dissolved in 100% DMSO were dispensed in all wells, following which the mixture of PIP2 and enzyme was added. PI3K (p110α/p85α) and PI3K (p110β/p85α) enzyme reactions were initiated in the presence of 10 μM and 100 μM ATP, respectively, and incubated for 30 min at room temperature. STOP solution prepared 2 hours prior to use was added to stop reactions, and mixed well. Detection solution prepared 2 hours prior to use was added, and incubated at room temperature for 17 hours in the dark. […] HTRF ration was calculated as follows: […]

Sequence of PI3K (p110α/p85α) (P42336 whole entry, species assumed): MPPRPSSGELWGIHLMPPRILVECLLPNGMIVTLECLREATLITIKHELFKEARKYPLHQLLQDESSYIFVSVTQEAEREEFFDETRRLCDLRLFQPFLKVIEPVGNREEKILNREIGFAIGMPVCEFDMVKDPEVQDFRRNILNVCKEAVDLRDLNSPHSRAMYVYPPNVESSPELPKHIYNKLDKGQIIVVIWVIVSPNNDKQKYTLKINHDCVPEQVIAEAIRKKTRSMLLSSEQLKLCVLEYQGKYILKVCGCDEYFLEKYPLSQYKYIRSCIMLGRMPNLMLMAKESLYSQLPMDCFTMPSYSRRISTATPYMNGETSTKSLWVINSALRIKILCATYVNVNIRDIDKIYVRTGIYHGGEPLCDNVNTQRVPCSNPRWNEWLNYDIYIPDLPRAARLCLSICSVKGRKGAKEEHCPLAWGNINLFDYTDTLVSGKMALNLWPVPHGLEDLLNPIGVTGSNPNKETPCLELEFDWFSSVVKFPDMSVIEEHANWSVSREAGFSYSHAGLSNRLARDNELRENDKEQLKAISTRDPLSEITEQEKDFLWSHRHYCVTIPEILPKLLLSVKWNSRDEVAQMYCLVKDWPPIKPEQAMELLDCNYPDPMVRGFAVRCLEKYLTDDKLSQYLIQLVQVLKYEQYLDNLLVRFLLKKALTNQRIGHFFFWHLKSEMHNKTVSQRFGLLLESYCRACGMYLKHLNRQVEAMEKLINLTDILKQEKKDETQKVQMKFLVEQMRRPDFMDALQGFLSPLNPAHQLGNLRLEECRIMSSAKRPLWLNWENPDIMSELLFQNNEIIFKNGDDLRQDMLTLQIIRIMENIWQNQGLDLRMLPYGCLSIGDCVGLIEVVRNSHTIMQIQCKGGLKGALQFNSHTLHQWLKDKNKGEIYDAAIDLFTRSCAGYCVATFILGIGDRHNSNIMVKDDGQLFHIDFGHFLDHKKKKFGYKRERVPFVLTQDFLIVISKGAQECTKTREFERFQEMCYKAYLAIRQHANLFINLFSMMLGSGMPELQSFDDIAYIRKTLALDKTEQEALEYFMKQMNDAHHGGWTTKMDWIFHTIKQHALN
Sequence of PI3K (p110α/p85α) (P27986 whole entry partner, species assumed): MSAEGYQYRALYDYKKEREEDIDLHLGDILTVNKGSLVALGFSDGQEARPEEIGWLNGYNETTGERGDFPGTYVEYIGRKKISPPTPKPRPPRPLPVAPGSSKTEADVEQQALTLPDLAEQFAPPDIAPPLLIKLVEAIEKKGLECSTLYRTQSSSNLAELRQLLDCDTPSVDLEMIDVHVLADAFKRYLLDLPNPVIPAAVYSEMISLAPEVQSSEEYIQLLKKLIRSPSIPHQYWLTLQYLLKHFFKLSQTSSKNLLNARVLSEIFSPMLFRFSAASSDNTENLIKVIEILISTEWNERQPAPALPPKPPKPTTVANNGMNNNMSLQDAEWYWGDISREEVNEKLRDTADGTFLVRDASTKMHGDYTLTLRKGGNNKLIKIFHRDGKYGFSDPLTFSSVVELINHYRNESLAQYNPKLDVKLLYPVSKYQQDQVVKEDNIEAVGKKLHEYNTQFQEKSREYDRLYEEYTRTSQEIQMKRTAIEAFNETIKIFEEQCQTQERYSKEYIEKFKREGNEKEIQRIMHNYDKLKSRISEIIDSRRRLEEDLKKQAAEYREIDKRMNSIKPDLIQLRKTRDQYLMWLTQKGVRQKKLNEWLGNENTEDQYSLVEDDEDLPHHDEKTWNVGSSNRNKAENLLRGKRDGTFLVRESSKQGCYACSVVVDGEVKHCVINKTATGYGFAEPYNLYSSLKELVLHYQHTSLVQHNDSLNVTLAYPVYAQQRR

SMILES | inhibition at 0.5 µM [%]
CSc1cnc(-c2ccc(NC(=O)Nc3ccc(C(N)=O)cc3)cc2)nc1N1CCOCC1 [MTR-0267, 4-{3-[4-(5-Methylsulfanyl-4-morpholin-4-yl-pyrimidin-2-yl)-phenyl]-ureido}-benzamide] | 83.7
CSc1c(Cl)nc(-c2ccc(NC(=O)Nc3ccc(C(=O)N4CCN(C)CC4)cc3)cc2)nc1N1CCOCC1 [MTR-0271, 1-[4-(4-Chloro-5-methylsulfanyl-6-morpholin-4-yl-pyrimidin-2-yl)-phenyl]-3-[4-(4-methyl-piperazine-1-carbonyl)-phenyl]-urea] | 94.5
CCOC(=O)c1nc(-c2ccc(NC(=O)Nc3ccc(S(N)(=O)=O)cc3)cc2)nc(N2CCOCC2)c1OCC [MTR-0273, 5-Ethoxy-6-morpholin-4-yl-2-{4-[3-(4-sulfamoyl-phenyl)-ureido]-phenyl}-pyrimidine-4-carboxylic acid ethyl ester] | 50.2
CCOC(=O)c1nc(-c2ccc(NC(=O)Nc3ccc(C(=O)N4CCN(C)CC4)cc3)cc2)nc(N2CCOCC2)c1OCC [MTR-0274, 5-Ethoxy-2-(4-{3-[4-(4-methyl-piperazine-1-carbonyl)-phenyl]-ureido}-phenyl)-6-morpholin-4-yl-pyrimidine-4-carboxylic acid ethyl ester] | 59
CCOC(=O)c1nc(-c2ccc(NC(=O)Nc3ccc(C(=O)NCCN(C)C)cc3)cc2)nc(N2CCOCC2)c1OCC [MTR-0277, 2-(4-{3-[4-(2-Dimethylamino-ethylcarbamoyl)-phenyl]-ureido}-phenyl)-5-ethoxy-6-morpholin-4-yl-pyrimidine-4-carboxylic acid ethyl ester] | 61.9
CCOC(=O)c1nc(-c2ccc(NC(=O)Nc3ccc(C(=O)N4CCOCC4)cc3)cc2)nc(N2CCOCC2)c1OCC [MTR-0278, 5-Ethoxy-2-(4-{3-[4-(morpholine-4-carbonyl)-phenyl]-ureido}-phenyl)-6-morpholin-4-yl-pyrimidine-4-carboxylic acid ethyl ester] | 58.6
COc1cnc(-c2ccc(NC(=O)Nc3ccc(C(N)=O)cc3)cc2)nc1N1CCOCC1 [MTR-0282, 4-{3-[4-(5-Methoxy-4-morpholin-4-yl-pyrimidin-2-yl)-phenyl]-ureido}-benzamide] | 76.8

Continued, values first:

inhibition at 0.5 µM [%] | SMILES
72.9 | COc1cnc(-c2ccc(NC(=O)Nc3ccc(S(N)(=O)=O)cc3)cc2)nc1N1CCOCC1 [MTR-0283, 4-{3-[4-(5-Methoxy-4-morpholin-4-yl-pyrimidin-2-yl)-phenyl]-ureido}-benzenesulfonamide]
79.2 | CSc1cnc(-c2ccc(NC(=O)Nc3ccc(S(N)(=O)=O)cc3)cc2)nc1N1CCOCC1 [MTR-0288, 4-{3-[4-(5-Methylsulfanyl-4-morpholin-4-yl-pyrimidin-2-yl)-phenyl]-ureido}-benzenesulfonamide]
44.3 | CCOC(=O)c1nc(-c2ccc(NC(=O)Nc3ccc4oc(=O)[nH]c4c3)cc2)nc(N2CCOCC2)c1OCC [MTR-0299, 5-Ethoxy-6-morpholin-4-yl-2-{4-[3-(2-oxo-2,3-dihydro-benzooxazol-5-yl)-ureido]-phenyl}-pyrimidine-4-carboxylic acid ethyl ester]
106 | CSc1c(Cl)nc(-c2ccc(NC(=O)Nc3ccc(C(=O)N4CCOCC4)cc3)cc2)nc1N1CCOCC1 [MTR-0308, 1-[4-(4-Chloro-5-methylsulfanyl-6-morpholin-4-yl-pyrimidin-2-yl)-phenyl]-3-[4-(morpholine-4-carbonyl)-phenyl]-urea]
86.9 | COc1cnc(-c2ccc(NC(=O)Nc3cccc(C(N)=O)c3)cc2)nc1N1CCOCC1 [MTR-0313, 3-{3-[4-(5-Methoxy-4-morpholin-4-yl-pyrimidin-2-yl)-phenyl]-ureido}-benzamide]
55.9 | CSc1cnc(-c2ccc(NC(=O)Nc3ccc(C(=O)O)cc3)cc2)nc1N1CCOCC1 [MTR-0316, 4-{3-[4-(5-Methylsulfanyl-4-morpholin-4-yl-pyrimidin-2-yl)-phenyl]-ureido}-benzoic acid]
